Measurements as given in ChEMBL document CHEMBL1201862, “PubChem BioAssay data set” (2004).
The source made the active and inactive calls.

Assays:
Cytochrome P450 3A4 = Cytochrome P450 3A4 (Homo sapiens, UniProt P08684);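 note: CYP3A4 tested as one member of a cytochrome P450 panel screen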
Cytochrome P450 2C9 [1] = target: T1, Cytochrome P450 2C9 (Homo sapiens, UniProt P11712)
[2] = C. albicans growth with fluconazole, confirmation, fluorescence, retest (AID 2467); format: functional, cell-based
[3] = target: ATP-dependent molecular chaperone HSP82 (Candida albicans (strain WO-1) (Yeast), UniProt C4YTQ8); assay: loss of DOC-induced GRE-beta-galactosidase reporter signal, dose response, Hsp90 inhibitor project, S. cerevisiae, luminescence (AID 2400); format: functional, cell-based;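 note: beta-galactosidase luminescence from glucocorticoid response element reporter as proxy for Hsp90 function; inhibitor potency where signal loss means Hsp90 inhibition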
[4] = NIH-3T3 fibroblast cytotoxicity, dose response, cytotoxicity control, cell-based, fluorescence, Alamar Blue, secondary assay (AID 2327); format: functional;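 note: NIH-3T3 mouse fibroblasts cultured with fluconazole at 8 µg/mL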
[5] = target: T2, Serine/threonine-protein phosphatase (Candida dubliniensis (strain CD36 / CBS 7987 / NCPF 3949 / NRRLY-17841) (Yeast), UniProt B9W6M3); assay: calcineurin pathway inhibitors in yeast reporter, dose response, S. cerevisiae, CDRE-lacZ, luminescence, secondary (AID 2388); format: functional, cell-based;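 note: yeast reporter cells carrying a calcineurin-responsive lacZ construct stimulated with calcium chloride; luminescent beta-galactosidase reporter signal in whole cells rather than isolated phosphatase activity; potency for inhibition where a drop in reporter signal means calcineurin blockade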
T2 sequence (B9W6M3 whole entry): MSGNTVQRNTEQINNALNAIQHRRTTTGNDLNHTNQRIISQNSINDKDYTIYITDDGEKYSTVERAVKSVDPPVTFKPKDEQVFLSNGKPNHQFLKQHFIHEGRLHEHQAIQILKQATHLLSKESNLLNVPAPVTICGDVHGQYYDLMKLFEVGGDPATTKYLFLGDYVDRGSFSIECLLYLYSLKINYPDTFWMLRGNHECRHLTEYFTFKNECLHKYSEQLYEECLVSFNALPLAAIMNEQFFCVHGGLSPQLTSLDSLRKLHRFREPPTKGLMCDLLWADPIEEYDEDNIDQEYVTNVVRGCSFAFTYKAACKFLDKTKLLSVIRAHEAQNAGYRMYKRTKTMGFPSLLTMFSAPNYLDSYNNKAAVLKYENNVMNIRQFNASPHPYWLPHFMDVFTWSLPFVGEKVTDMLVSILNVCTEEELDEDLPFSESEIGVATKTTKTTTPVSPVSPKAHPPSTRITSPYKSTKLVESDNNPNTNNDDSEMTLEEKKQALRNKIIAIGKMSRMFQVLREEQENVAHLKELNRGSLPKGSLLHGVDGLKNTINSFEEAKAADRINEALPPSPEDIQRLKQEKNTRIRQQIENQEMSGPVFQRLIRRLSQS

Protein Wnt-3a = Protein Wnt-3a (Mus musculus, UniProt P27467); assay: Wnt3a-driven reporter signaling inhibition, dose response, selectivity assay for Gli-SUFU antagonist project, Wnt-LIGHT cells, luminescence (AID 651570); format: functional; conditions: read-out: IC50_Mean;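 note: Wnt-LIGHT reporter cells stimulated with conditioned medium from Wnt3a-producing cells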
BJ [6] = assay: cytotoxicity toward Ras-transformed BJeLR fibroblasts, dose response, cell-based, alamar blue fluorescence, cherrypicked samples (AID 2631); format: functional; conditions: Homo sapiens;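 note: confirmatory dose-response assay in RAS-dependent BJ fibroblasts engineered with TERT, LT and ST, with cytotoxicity read by fluorescence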
BJ [7] = assay: cells; format: functional, cell-based; conditions: Homo sapiens
BJ [8] = assay: cytotoxicity toward BJ-TERT-LT-ST fibroblasts, dose response, cell-based, RAS-independent, luminescence (AID 1935); format: functional; conditions: Homo sapiens;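 note: BJ fibroblasts immortalized with TERT plus LT and ST oncogenes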
BJ [9] = assay: cytotoxicity toward BJ-TERT fibroblasts, dose response, cell-based, RAS-independent, luminescence (AID 1933); format: functional; conditions: Homo sapiens
[10] = cytotoxicity toward DRD oncogenic fibroblasts, dose response, cell-based, non-viral oncogenic, luminescence (AID 1934); format: functional; conditions: Homo sapiens
[11] = target: T3, Polyadenylate-binding protein 1 (Homo sapiens, UniProt P11940); assay: PABP1 MLLE–PAM2 binding inhibitor potency, dose response, biochemical, fluorescence polarization, FITC-PAM2 peptide (AID 602259); format: functional; conditions: read-out: IC50_Mean
[12] = target: T3, Polyadenylate-binding protein 1; assay: PABP1 MLLE–PAM2 interaction inhibitors, dose response, miRNA deadenylation inhibitor project, biochemical, fluorescence polarization, Cy5-PAM2 peptide, secondary (AID 602260); format: functional; conditions: read-out: IC50_Mean
Cytochrome P450 2C9 [13] = target: T1, Cytochrome P450 2C9; remark: listed apart in the source
Paired box protein Pax-8 = Paired box protein Pax-8 (Homo sapiens, UniProt Q06710); assay: inhibitors of PAX8-driven TPO luciferase reporter, dose response, RMG-I cells, cherry-pick (AID 687027); format: functional, cell-based;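 note: luciferase reporter driven by Pax8 target thyroperoxidase promoter measured by SteadyGlo luminescence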
[14] = non-specific cell cytotoxicity, dose response, cytotoxicity control for PAX8 inhibitor project, plate reader, dry powder samples (AID 743021); format: functional, cell-based
[15] = target: T4, Low molecular weight phosphotyrosine protein phosphatase (Homo sapiens, UniProt P24666); format: functional; conditions: read-out: IC50_Mean;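 note: Dose-response confirmation assay measuring inhibition of LMPTP enzyme activity by fluorescence intensity read-out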
T4 sequence (P24666 whole entry): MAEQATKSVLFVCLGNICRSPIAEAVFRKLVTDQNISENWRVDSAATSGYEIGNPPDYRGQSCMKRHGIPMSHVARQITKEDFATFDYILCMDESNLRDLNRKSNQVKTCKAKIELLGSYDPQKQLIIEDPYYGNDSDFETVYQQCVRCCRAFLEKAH

[16] = target: T5, Lysine-specific demethylase 4C (Homo sapiens, UniProt Q9H3R0); assay: GASC-1 (JMJD2C) histone demethylase inhibitors, dose response, biochemical, DELFIA europium, cherry-picked samples (AID 488835); format: functional
T5 sequence (Q9H3R0 whole entry): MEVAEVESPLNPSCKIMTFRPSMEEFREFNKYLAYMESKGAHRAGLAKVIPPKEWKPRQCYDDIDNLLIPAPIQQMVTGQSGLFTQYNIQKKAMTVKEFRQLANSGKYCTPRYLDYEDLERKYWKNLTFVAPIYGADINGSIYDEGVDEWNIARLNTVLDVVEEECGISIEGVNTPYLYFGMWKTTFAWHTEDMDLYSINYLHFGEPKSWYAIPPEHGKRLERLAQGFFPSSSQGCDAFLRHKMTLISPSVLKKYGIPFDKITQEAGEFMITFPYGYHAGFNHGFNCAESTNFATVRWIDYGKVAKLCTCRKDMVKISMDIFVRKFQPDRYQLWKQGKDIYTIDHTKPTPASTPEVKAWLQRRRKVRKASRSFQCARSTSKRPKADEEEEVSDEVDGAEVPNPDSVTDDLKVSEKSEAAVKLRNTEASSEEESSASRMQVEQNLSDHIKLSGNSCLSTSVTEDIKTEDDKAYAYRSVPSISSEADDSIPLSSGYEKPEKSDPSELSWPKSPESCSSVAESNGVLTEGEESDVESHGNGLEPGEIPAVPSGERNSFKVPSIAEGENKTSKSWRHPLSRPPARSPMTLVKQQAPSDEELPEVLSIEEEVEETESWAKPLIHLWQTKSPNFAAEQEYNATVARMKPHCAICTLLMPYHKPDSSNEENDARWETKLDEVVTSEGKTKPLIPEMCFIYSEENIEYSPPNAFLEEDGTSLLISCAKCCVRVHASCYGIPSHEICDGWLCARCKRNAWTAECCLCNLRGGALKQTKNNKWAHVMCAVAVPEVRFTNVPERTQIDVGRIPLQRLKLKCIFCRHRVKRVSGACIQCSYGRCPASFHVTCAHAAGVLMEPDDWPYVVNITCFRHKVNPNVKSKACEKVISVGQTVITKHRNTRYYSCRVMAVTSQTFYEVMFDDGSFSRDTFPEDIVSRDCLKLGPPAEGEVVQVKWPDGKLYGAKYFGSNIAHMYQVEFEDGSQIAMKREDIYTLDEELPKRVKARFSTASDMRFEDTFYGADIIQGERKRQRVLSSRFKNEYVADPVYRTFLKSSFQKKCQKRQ

[17] = target: FAD-linked sulfhydryl oxidase ALR (Homo sapiens, UniProt P55789); assay: inhibitors of human ALR sulfhydryl oxidase, dose response, biochemical, H2O2 detection, luminescence, cherry-pick (AID 493248)
[18] = target: T6, High affinity choline transporter 1 (Homo sapiens, UniProt Q9GZV3); assay: CHT inhibitors, dose response, cell-based, 5-point CRC, membrane potential dye (AID 504840); format: functional
T6 sequence (Q9GZV3 whole entry): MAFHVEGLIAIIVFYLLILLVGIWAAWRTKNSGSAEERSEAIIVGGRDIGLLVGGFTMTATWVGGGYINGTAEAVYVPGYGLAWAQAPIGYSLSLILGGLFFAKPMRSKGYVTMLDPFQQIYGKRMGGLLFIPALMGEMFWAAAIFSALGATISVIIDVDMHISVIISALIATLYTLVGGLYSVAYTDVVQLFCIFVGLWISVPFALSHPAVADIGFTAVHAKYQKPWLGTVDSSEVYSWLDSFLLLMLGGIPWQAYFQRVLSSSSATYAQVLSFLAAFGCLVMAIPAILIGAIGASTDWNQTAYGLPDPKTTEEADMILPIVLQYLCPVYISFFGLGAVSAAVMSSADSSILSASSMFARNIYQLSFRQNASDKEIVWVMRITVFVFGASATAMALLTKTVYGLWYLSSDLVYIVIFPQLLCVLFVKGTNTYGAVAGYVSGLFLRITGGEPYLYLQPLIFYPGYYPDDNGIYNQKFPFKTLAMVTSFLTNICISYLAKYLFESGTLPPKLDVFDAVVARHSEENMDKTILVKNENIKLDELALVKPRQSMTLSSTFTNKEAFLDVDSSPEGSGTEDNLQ

INS1 = assay: beta cell apoptosis inhibitors, cytokine rescue, dose response, luminescence, retest (AID 449756); format: functional, cell-based; conditions: Rattus norvegicus;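 note: cell death triggered by IL-1 beta plus TNF-alpha plus IFN-gamma mixture; protective hits raise ATP signal compared with cytokine alone wells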
[19] = target: Ras and Rab interactor 1/Tyrosine-protein kinase ABL1 (Homo sapiens, UniProt P00519+Q13671); format: functional;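 note: biochemical TR-FRET dose-response test measuring inhibition of binding between Rin1 and Abl proteins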
Cytochrome P450 2C19 = Cytochrome P450 2C19 (Homo sapiens, UniProt P33261); assay: Cytochrome panel assay with activity outcomes. Panel member name: p450-cyp2c19 Compounds with AC50 equal or less than 10 uM are considered active; format: functional; conditions: read-out: AC50

ATP-dependent molecular chaperone HSP82, sequence (C4YTQ8 whole entry): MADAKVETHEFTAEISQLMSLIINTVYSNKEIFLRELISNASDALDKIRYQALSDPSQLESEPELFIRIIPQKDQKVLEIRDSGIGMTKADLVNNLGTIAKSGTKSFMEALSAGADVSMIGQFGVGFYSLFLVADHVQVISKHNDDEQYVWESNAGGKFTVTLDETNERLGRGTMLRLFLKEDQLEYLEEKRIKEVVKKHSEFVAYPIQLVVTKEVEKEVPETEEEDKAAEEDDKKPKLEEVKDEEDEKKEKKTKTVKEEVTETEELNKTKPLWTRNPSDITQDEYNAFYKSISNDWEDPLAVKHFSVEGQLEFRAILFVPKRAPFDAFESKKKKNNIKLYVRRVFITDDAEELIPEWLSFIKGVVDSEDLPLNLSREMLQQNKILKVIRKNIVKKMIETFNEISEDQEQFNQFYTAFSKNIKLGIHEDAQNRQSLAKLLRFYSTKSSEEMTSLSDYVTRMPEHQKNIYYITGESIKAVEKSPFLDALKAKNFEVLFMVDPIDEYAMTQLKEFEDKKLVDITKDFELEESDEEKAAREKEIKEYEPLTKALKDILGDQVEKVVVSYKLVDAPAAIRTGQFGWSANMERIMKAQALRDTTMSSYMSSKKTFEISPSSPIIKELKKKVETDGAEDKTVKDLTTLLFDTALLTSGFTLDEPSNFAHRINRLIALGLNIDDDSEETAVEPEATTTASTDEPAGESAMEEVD
T1 sequence (P11712 whole entry): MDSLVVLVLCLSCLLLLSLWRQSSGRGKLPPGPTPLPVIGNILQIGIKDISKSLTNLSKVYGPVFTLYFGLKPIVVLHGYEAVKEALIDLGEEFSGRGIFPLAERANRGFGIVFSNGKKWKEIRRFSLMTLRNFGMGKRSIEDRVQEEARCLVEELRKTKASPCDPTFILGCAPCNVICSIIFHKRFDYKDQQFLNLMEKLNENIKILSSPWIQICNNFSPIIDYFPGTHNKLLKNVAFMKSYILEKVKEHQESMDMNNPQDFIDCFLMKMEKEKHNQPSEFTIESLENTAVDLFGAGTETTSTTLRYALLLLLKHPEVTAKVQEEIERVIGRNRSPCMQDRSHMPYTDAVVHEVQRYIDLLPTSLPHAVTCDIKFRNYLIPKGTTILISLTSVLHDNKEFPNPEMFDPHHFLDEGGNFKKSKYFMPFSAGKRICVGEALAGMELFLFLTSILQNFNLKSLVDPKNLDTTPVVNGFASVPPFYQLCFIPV
Cytochrome P450 3A4, sequence (P08684 whole entry): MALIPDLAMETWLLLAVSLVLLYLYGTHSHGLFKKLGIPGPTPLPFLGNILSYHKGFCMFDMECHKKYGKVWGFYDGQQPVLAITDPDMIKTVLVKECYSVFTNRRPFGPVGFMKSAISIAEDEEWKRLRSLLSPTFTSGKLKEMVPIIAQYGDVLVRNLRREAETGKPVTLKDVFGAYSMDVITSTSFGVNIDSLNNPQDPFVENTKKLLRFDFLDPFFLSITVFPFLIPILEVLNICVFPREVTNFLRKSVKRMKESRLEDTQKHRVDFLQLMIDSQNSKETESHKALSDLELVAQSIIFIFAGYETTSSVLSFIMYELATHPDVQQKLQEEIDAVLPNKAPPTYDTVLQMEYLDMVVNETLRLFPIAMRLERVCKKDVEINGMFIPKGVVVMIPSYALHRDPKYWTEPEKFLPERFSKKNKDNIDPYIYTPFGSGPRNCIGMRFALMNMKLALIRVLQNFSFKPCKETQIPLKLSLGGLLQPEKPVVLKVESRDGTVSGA
Protein Wnt-3a, sequence (P27467 whole entry): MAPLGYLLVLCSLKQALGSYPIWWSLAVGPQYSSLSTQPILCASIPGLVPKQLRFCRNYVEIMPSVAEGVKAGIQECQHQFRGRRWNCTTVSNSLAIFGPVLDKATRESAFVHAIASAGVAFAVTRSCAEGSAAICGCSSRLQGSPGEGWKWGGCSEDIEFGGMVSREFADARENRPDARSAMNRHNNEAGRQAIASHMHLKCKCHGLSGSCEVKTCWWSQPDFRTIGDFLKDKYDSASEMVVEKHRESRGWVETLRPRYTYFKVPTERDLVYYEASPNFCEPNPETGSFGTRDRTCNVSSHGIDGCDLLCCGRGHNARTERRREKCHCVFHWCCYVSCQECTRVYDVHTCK
Ras and Rab interactor 1/Tyrosine-protein kinase ABL1, sequence (P00519 whole entry): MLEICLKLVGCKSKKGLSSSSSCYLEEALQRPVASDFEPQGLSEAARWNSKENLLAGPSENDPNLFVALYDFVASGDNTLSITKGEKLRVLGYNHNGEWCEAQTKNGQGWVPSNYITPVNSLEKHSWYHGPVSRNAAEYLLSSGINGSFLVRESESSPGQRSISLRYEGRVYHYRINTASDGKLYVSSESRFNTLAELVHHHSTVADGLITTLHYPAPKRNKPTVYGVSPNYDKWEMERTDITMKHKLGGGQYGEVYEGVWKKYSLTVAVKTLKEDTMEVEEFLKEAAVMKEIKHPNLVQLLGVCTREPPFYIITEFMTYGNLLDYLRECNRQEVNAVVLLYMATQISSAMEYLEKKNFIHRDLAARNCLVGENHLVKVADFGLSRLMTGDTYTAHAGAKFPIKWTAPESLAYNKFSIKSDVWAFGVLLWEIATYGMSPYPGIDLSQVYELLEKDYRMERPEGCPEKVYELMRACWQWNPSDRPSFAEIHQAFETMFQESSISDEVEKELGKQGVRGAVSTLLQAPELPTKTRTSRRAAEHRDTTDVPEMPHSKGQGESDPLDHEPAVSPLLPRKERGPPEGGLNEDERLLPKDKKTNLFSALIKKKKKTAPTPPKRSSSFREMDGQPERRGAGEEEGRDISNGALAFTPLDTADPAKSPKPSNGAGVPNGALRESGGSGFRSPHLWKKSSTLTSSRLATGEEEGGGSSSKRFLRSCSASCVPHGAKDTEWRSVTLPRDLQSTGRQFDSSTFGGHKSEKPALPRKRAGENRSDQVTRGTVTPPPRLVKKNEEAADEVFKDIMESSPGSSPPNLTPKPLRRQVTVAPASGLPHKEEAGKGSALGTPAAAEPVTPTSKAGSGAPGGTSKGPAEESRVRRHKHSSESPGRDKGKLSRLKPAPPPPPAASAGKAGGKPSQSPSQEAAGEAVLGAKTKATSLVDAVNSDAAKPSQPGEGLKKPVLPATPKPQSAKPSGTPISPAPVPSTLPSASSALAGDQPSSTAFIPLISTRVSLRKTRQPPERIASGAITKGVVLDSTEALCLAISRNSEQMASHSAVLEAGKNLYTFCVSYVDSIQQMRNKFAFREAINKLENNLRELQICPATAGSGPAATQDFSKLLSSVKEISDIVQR
Ras and Rab interactor 1/Tyrosine-protein kinase ABL1, sequence (Q13671 whole entry): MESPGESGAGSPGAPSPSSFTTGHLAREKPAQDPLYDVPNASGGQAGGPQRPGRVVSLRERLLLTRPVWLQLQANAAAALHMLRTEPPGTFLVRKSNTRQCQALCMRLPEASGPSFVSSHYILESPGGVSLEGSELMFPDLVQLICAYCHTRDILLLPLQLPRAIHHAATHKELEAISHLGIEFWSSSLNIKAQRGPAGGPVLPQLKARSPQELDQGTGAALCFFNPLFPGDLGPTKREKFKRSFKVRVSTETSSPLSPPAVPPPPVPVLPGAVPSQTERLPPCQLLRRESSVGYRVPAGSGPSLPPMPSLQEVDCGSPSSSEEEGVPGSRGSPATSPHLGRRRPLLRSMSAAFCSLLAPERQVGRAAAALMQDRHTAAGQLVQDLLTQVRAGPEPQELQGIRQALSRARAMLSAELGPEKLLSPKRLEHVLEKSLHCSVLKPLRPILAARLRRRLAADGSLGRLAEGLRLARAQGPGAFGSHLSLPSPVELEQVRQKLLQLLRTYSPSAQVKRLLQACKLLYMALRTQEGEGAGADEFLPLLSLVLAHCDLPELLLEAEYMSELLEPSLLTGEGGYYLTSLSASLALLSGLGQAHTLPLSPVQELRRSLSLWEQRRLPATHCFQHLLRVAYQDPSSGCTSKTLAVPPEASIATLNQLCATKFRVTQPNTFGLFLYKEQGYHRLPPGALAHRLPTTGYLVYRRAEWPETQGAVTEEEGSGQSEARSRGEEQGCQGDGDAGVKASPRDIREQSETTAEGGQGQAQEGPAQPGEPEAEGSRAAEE
T3 sequence (P11940 whole entry): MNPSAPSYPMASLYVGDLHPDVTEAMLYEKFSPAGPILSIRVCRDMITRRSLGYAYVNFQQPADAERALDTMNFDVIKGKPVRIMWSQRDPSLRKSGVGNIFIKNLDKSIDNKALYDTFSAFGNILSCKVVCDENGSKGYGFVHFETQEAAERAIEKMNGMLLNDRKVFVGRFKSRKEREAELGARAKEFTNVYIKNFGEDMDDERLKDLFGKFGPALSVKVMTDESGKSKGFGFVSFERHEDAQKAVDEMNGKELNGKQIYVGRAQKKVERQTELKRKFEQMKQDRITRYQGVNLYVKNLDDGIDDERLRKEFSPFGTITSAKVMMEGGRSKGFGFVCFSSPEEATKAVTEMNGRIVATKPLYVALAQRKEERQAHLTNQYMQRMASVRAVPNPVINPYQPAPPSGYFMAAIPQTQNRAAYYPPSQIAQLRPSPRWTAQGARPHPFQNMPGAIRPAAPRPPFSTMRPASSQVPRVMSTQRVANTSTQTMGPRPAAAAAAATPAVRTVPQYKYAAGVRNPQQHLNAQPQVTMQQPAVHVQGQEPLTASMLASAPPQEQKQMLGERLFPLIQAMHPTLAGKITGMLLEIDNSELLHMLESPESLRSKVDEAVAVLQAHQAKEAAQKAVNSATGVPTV
Paired box protein Pax-8, sequence (Q06710 whole entry): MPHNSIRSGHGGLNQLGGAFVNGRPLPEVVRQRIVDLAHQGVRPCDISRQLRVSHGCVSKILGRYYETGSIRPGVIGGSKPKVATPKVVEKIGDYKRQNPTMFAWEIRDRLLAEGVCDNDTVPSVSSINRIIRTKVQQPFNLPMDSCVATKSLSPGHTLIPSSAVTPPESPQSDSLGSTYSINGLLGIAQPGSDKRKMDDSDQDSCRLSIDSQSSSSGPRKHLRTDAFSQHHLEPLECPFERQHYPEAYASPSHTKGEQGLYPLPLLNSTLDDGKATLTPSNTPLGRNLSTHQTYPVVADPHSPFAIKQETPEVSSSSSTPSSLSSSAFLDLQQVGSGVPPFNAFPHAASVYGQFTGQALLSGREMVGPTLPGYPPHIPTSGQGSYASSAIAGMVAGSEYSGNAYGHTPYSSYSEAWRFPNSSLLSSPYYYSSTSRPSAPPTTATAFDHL

CN1CCN(c2ncc3nc(CCc4ccccc4)c(=O)n(C)c3n2)CC1
AC50 (Cytochrome P450 3A4): inconclusive
AC50 (Cytochrome P450 2C9 [1]): 39.8 µM (inconclusive)

CCc1nnc(NC(=O)CSc2ncc(-c3ccccc3)n2C)s1
EC50 [2]: 1.3 µM (active)
EC50 [3]: 23.1 µM (active)
EC50 [4]: > 150 µM (inactive)
EC50 [5]: > 180 µM (inactive)

Cc1ccc(S(=O)(=O)NCCC2=CCCCC2)cc1C(N)=O
IC50 (Protein Wnt-3a): 10.8 µM (active)

N=c1c2c(-c3ccccc3)c(-c3ccccc3)n(Cc3ccco3)c2ncn1CCCn1ccnc1
EC50 (BJ [6]): 1.81 µM (active)
EC50 (BJ [7]): 22.5 µM (active)
EC50 (BJ [8]): > 75 µM (not active)
EC50 (BJ [9]): 9.46 µM (active)
EC50 [10]: 9.54 µM (active)

Cc1ccc(C)c(NC(S)=NNC(=O)c2csc(C(C)C)c2)c1
IC50 [11]: > 66 µM (inactive)
IC50 [12]: > 66 µM (inactive)
EC50 [2]: 0.907 µM (active)
EC50 [3]: > 160 µM (inactive)
EC50 [4]: > 150 µM (inactive)
EC50 [5]: > 180 µM (inactive)

C=CCN1CCc2c(cc(O)c(O)c2Br)[C@H](c2ccccc2)C1
AC50 (Cytochrome P450 3A4): inconclusive
AC50 (Cytochrome P450 2C9 [1]): 31.6 µM (inconclusive)

C/C(Nc1c(C)n(C)n(-c2ccccc2)c1=O)=C1/C(=O)NC(=O)N(Cc2ccccc2)C1=O
AC50 (Cytochrome P450 3A4): inconclusive
AC50 (Cytochrome P450 2C9 [13]): inconclusive

CCCCCCCN(C(=O)CCl)c1cccc(C)c1
EC50 (BJ [6]): 3.17 µM (active)
EC50 (BJ [7]): 3.93 µM (inconclusive)
AC50 (Paired box protein Pax-8): 5.91 µM (active)
EC50 (BJ [8]): > 75 µM (inconclusive)
EC50 (BJ [9]): 0.36 µM (inconclusive)
EC50 [10]: 2.48 µM (inconclusive)
AC50 [14]: 9.19 µM (active)

CCCCn1nnnc1C(c1cc2ccccc2o1)N1CCN(c2cc(C)nc3ccccc23)CC1 (centres undefined)
IC50 [15]: 9.12 µM (active)

Cc1ccccc1/C=C1\SC(=S)N(/N=C/c2cc([N+](=O)[O-])ccc2O)C1=O
EC50 [2]: 2.01 µM (active)
EC50 [3]: 20.7 µM (active)
EC50 [4]: > 160 µM (inactive)
EC50 [5]: > 180 µM (inactive)

c1ccc(-c2nc(-c3ccco3)cs2)nc1
AC50 [16]: 20 µM (active)
AC50 [17]: 0.593 µM (active)

CCCOc1ccc(Br)cc1CSC(=N)N
IC50 [18]: 15.9 µM (active)
IC50 (Protein Wnt-3a): 9.88 µM (active)
AC50 (INS1): 6.45 µM (active)

CCOC(=O)CCCCC(=O)c1[nH]c(=O)[nH]c1CSCCO
IC50 [19]: 0.695 µM (active)

CN(Cc1c(F)cccc1Cl)C(=O)CNC(=O)c1ccc2c(c1)OCO2
IC50 [19]: 6.04 µM (active)

CCC(=O)O[C@H]1CC[C@H]2[C@@H]3CCC4=CC(=O)CC[C@]4(C)[C@H]3CC[C@]12C [TESTOSTERONE PROPIONATE]
AC50 (Cytochrome P450 2C19): 10 µM (inconclusive)
AC50 (Cytochrome P450 3A4): inconclusive
AC50 (Cytochrome P450 2C9 [1]): 12.6 µM (inconclusive)
